Source: patent publication US7390831B2, “Tetracyclic steroid derivatives useful as progesterone receptor modulators” (Janssen Pharmaceutica N.V., priority 2006, dated 2008)
Read-outs that look alike come from different tables or passages of the source.

Tests used:
[1] = test system: A549 Human lung carcinoma cells; experiment: A549 Human Lung Cell Assay (transfected cells, dexamethasone challenge, luciferase read-out); type: cell-based; conditions: test compound 10 min then dexamethasone challenge, 24 h, Luc-assay, read-out: A 549 IC50
Protocol: A549Human Lung Cell Assay
A549Human lung carcinoma cells were grown in F-12K Nutrient Mixture containing 10% (v/v) fetal bovine serum (FBS; Invitrogen), 2 mM glutamine and 0.15% sodium dicarbonate (Invitrogen).
A549 cells were split 1 to 3 in 175 cm tissue culture flask. The cells were incubated at 37° C. in CO2 incubator until the cells were 95% confluent (typically 24-30 hours).
The following solutions were prepared in sterile tubes: (a) Solution A 1.5 μg/ml of DNA in 8.5 ml OPTI-MEM I Reduced Serum Medium. (GIBCO cat# 31985) and (b) Solution B: 6 μl/ml of DMRIE-C Reagent into […] OPTI-MEM I. The two solutions were combined and mixed gently, then incubated at room temperature for 40 minutes.
The A549 cells prepared above were washed with […] of OPTI-MEM I. The medium was removed and 17 ml of the lipid-DNA complex solution was overlayed onto cells. The cells ere then incubated for 16 h at 37° C. in CO2 incubator. The DNA-containing medium was removed and 30 ml of growth medium was added. (5% Charcoal treated FBS) After 5-6 h, the cells were seeded in a 96 well plate and the cells incubated overnight at 37° C. in CO2 incubator.
To each well was then added 5 μl of test compounds and the cells incubated at 37° C. for 10 min. 5 μL of dexamathasone (CAS [50-02-2]), was then added to each well for challenger and the cells incubated at 37° C. in CO2 incubator for 24 h. 100 μl of Luc-assay buffer was then added into each cell well and the cells incubated for 30 min at room temperature. A 150 μL sample from each well was then transferred into a DYNEX Microlitel plate and read on Top-counter.
(§1) Representative compounds of the present invention were tested according to the procedures described in Examples 45 and 46 above, with results as listed in Table 2 below.

[2] = test system: T47D human breast cancer cells; experiment: T47D Human Breast Cancer Cells Assay (alkaline phosphatase, luminescence); type: cell-based
Protocol: T47D Human Breast Cancer Cells Assay
T47D human breast cancer cells were grown in RPMI medium without phenol red (Invitrogen) containing 10% (v/v) heat-inactivated fetal bovine serum (FBS; Hyclone), 1% (v/v) penicillin-streptomycin (Invitrogen), 1% (w/v) glutamine (Invitrogen), and […] insulin (Sigma). Incubation conditions were 37° C. in a humidified 5% (v/v) carbon dioxide environment.
The cells were plated in 96-well tissue culture plates at 10,000 cells per well in assay medium [RPMI medium without phenol red (Invitrogen) containing 5% (v/v) charcoal-treated FBS (Hyclone) and 1% (v/v) penicillin-streptomycin (Invitrogen)]. Two days later, the medium was decanted and test compound or control were added at a final concentration of 0.1% (v/v) dimethyl sulfoxide in fresh assay medium. Twenty-four hours later, an alkaline phosphatase assay was performed using a SEAP kit (BD Biosciences Clontech, Palo Alto, Calif.). Briefly, the medium was decanted and the cells were fixed for 30 minutes at room temperature with 5% (v/v) formalin (Sigma). The cells were washed once with room temperature Hank's buffered saline solution (Invitrogen). Equal volumes (0.05 mL) of 1× Dilution Buffer, Assay Buffer and 1:20 substrate/enhancer mixture were then added. After 1 hour incubation at room temperature in the dark, the lysate was transferred to a white 96-well plate (Dynex) and luminescence was read using a LuminoSkan Ascent (Thermo Electron, Woburn, Mass.).
as §1

[3] = T47D cells, 24 h with test compound, alkaline phosphatase assay (SEAP kit), read-out: T47D IC50
[4] = read-out: T47D IC50, T47D cells, 24 h with test compound, alkaline phosphatase assay (SEAP kit)
[5] = Homo sapiens, T47D, 24 h, read-out: T47D IC50 (nM), T47D cells, 24 h with test compound, alkaline phosphatase assay (SEAP kit)

| Molecule | IC50 [2, 5] | IC50 ([1]; Homo sapiens, A549, A549 cells) | also measured |
| --- | --- | --- | --- |
| 1-Hydroxy-1-isopropenyl-10-(4-methanesulfonyl-phenyl)-12a-methyl-2,3,3a,3b,4,5,9,10,10,12,12a-decahydro-1H,8H-11-oxa-naphtho[2,1-e]azulen-7-one [Compound 30] | – | – | IC50 ([1]; A549 cells): > 1000 nM |
| 10-(4-Dimethylamino-phenyl)-1-(3-fluoro-phenylethynyl)-1-hydroxy-12a-methyl-2,3,3a,3b,4,5,9,10,12,12 a-decahydro-1H,8H-11-oxa-naphtho[2,1-e]azulen-7-one [Compound 34] | – | – | IC50 [2, 3]: 122 nM |
| 10-(4-Dimethylamino-phenyl)-1-(4-fluoro-phenylethynyl)-1-hydroxy-12a-methyl-2,3,3a,3b,4,5,9,10,12,12a-decahydro-1H,8H-11-oxa-naphtho[2,1-e]azulen-7-one [Compound 35] | – | – | IC50 [2, 3]: 17 nM |
| 10-(4-Dimethylamino-phenyl)-1-ethynyl-1-hydroxy-12a-methyl-2,3,3a,3b,4,5,9,10,12,12a-decahydro-1H,8H-11-oxa-naphtho[2,1-e]azulen-7-one [Compound 3] | – | – | IC50 [2, 3]: 7 nM; IC50 ([1]; A549 cells): 133 nM |
| COc1ccc([C@H]2OC[C@@]3(C)C(CC[C@@]3(O)C#Cc3ccccc3)C3CCC4=CC(=O)CCC4=C32)cc1 (stereo in doubt) [Compound 23, 1-Hydroxy-10-(4-methoxy-phenyl)-12a-methyl-1-phenylethynyl-2,3,3a,3b,4,5,9,10,12,12a-decahydro-1H,8H-11-oxa-naphtho[2,1-e]azulen-7-one] | – | – | IC50 [2, 4]: 260 nM; IC50 ([1]; A549 cells): 237 nM |
| C=C(C)[C@]1(O)CCC2C3CCC4=CC(=O)CCC4=C3[C@@H](c3ccc(N(C)C)cc3)OC[C@@]21C (stereo partly drawn) [Compound 1, 10-(4-Dimethylamino-phenyl)-1-hydroxy-1-isopropenyl-12a methyl-2,3,3a,3b,4,5,9,10,12,12a-decahydro-1H,8H-11-oxa-naphtho[2,1 e]azulen-7-one] | 0.4 nM | 50.1 nM | – |
| C=C(C)[C@]1(O)CCC2C3CCC4=CC(=O)CCC4=C3[C@@H](c3ccc(SC)cc3)OC[C@@]21C (stereo partly drawn) [Compound 2, 1-Hydroxy-1-isopropenyl-12a-methyl-10-(4-methylsulfanyl-phenyl)-2,3,3a,3b,4,5,9,10,12,12a-decahydro-1H,8H-11-oxa-naphtho[2,1-e]azulen-7-one] | 5.12 nM | 58.2 nM | – |
| CSc1ccc(C2OCC3(C)C(CCC3(O)C(F)(F)C(F)(F)F)C3CCC4=CC(=O)CCC4=C23)cc1 (stereo not drawn) [Compound 4, 1-Hydroxy-12a-methyl-10-(4-methylsulfanyl-phenyl)-1-pentafluoroethyl-2,3,3a,3b4,5,9,10,12,12a-decahydro-1H,8H-11-oxa-naphtho[2,1-e]azulen-7-one] | – | – | IC50 [2, 3]: 33.2 nM; IC50 ([1]; A549 cells): 68.7 nM |
| CSc1ccc([C@H]2OC[C@@]3(C)C(CC[C@@]3(O)C(F)(F)C(F)(F)F)C3CCC4=CC(=O)CCC4=C32)cc1 (stereo partly drawn) [Compound 5] | 54 nM | 7.06 nM | – |
| COc1ccc([C@H]2OC[C@@]3(C)C(CC[C@@]3(O)C#Cc3ccc(C(F)(F)F)cc3)C3CCC4=CC(=O)CCC4=C32)cc1 (stereo partly drawn) [Compound 6, 1-Hydroxy-10-(4-methoxy-phenyl)-12a-methyl-1-(4-trifluoromethyl-phenylethynyl)-2,3,3a,3b,4,5,9,10,12,12a-decahydro-1H,8H-11-oxa-naphtho[2,1-e]azulen-7-one] | – | – | IC50 [2, 4]: 83 nM; IC50 ([1]; A549 cells): 109 nM |
| CC#C[C@]1(O)CCC2C3CCC4=CC(=O)CCC4=C3[C@@H](c3ccc(N(C)C)cc3)OC[C@@]21C (stereo partly drawn) [Compound 7, 10-(4-Dimethylamino-phenyl)-1-hydroxy-12a-methyl-1-prop-1-ynyl-2,3,3a,3b,4,5,9,10,12,12a-decahydro-1H,8H-11-oxa-naphtho[2,1-e]azulen-7-one] | 116 nM | 16.2 nM | – |
| COc1ccc([C@H]2OC[C@@]3(C)C(CC[C@@]3(O)C#Cc3ccc(C(C)(C)C)cc3)C3CCC4=CC(=O)CCC4=C32)cc1 (stereo partly drawn) [Compound 9, 1-(4-tert-Butyl-phenylethynyl)-1-hydroxy-10-(4-methoxy-phenyl)-12a-methyl-2,3,3a,3b,4,5,9,10,12,12a-decahydro-1H,8H-11-oxa-naphtho[2,1-e]azulen-7-one] | 264 nM | 626 nM | – |
| CN(C)c1ccc([C@H]2OC[C@]3(C)C(=O)CCC3C3CCC4=CC(=O)CCC4=C32)cc1 (stereo partly drawn) [Compound 10, 10-(4-Dimethylamino-phenyl)-12a-methyl-2,3,3a,3b,4,5,9,10,12,12a-decahydro-8H-11-oxa-naphtho[2,1-e]azulene-1,7-dione] | 1800 nM | > 3000 nM | – |
| CSc1ccc([C@H]2OC[C@]3(C)C(=O)CCC3C3CCC4=CC(=O)CCC4=C32)cc1 (stereo partly drawn) [Compound 25, 12a-Methyl-10-(4-methylsulfanyl-phenyl) 2,3,3a,3b,4,5,9,10,12,12a-decahydro-8H-11-oxa-naphtho[2,1-e]azulene-1,7-dione] | – | 1320 nM | – |
| C=CC(=O)[C@]1(O)CCC2C3CCC4=CC(=O)CCC4=C3[C@@H](c3ccc(SC)cc3)OC[C@@]21C (stereo partly drawn) [Compound 26] | – | 2310 nM | – |
| CC#C[C@]1(O)CCC2C3CCC4=CC(=O)CCC4=C3[C@@H](c3ccc(OC)cc3)OC[C@@]21C (stereo partly drawn) [Compound 27] | – | – | IC50 ([1]; A549 cells): 41.5 nM |
| COc1ccc([C@H]2OC[C@]3(C)C(=O)CCC3C3CCC4=CC(=O)CCC4=C32)cc1 (stereo partly drawn) [Compound 28, 10-(4-Methoxy-phenyl)-12a-methyl-2,3,3a,3b,4,5,9,10,12,12a-decahydro-8H-11-oxa-naphtho[2,1-e]azulene-1,7-dione] | – | > 3000 nM | – |
| COc1ccc([C@@H]2OC[C@]3(C)C(=O)CCC3C3CCC4=CC(=O)CCC4=C32)cc1 (stereo partly drawn) [Compound 29, 10-α-(4-Methoxy-phenyl)-12a-methyl-2,3,3a,3b,4,5,9,10,12,12a-decahydro-8H-11-oxa-naphtho[2,1-e]azulene-1,7-dione] | – | > 3000 nM | – |
| CN(C)c1ccc([C@H]2OC[C@@]3(C)C(CC[C@@]3(O)C#Cc3ccccc3)C3CCC4=CC(=O)CCC4=C32)cc1 (stereo partly drawn) [Compound 31, 10-(4-Dimethylamino-phenyl)-1-hydroxy-12a-methyl-1-phenyl ethynyl-2,3,3a,3b,4,5,9,10,12,12a-decahydro-1H,8H-11-oxa-naphtho[2,1-e]azulen-7-one] | 78 nM | – | – |
| CN(C)c1ccc([C@H]2OC[C@@]3(C)C(CC[C@@]3(O)C#Cc3ccccc3F)C3CCC4=CC(=O)CCC4=C32)cc1 (stereo partly drawn) [Compound 32, 10-(4-Dimethylamino-phenyl)-1-(2-fluoro-phenylethynyl)-1-hydroxy-12a-methyl-2,3,3a,3b,4,5,9,10,12,12a-decahydro-1H,8H-11-oxa-naphtho[2,1-e]azulen-7-one] | 48 nM | – | – |
| CN(C)c1ccc([C@H]2OC[C@@]3(C)C(CC[C@@]3(O)C#Cc3cc(F)cc(F)c3)C3CCC4=CC(=O)CCC4=C32)cc1 (stereo partly drawn) [Compound 36, 1-(3,5-Difluoro-phenylethynyl)-10-(4-dimethylamino-phenyl)-1-hydroxy-12a-methyl-2,3,3a,3b,4,5,9,10,12,12a-decahydro-1H,8H-11-oxa-naphtho[2,1-e]azulen-7-one] | 160 nM | – | – |
| CN(C)c1ccc(C2OCC3(C)C(CCC3(O)C(F)(F)C(F)(F)F)C3CCC4=CC(=O)CCC4=C23)cc1 (stereo not drawn) [Compound 37, 10-(4-Dimethylamino-phenyl)-1-hydroxy-12a-methyl-1-penta fluoroethyl 2,3,3a,3b4,5,9,10,12,12a-decahydro-1H,8H-11-oxa-naphtho[2,1-e]azulen-7-one] | – | – | IC50 [2, 3]: 42 nM |
| C=C1CCOC12CC[C@H]1[C@@H]3CCC4=CC(=O)CCC4=C3[C@@H](c3ccc(N(C)C)cc3)OC[C@@]12C (stereo partly drawn) [Compound 38] | 1.1 nM | – | – |
